How the values were obtained:
[1] = tested on: P. aerug. Ps296 VIM-2; assay: Broth microdilution MIC, P. aeruginosa Ps296; format: cell-based; conditions: Pseudomonas aeruginosa; fixed meropenem 4 μg/mL, CAMHB, 16-20 hours 37° C.; read-out: MIC of exemplary compounds in presence of fixed β-lactams, Fixed Mero, P. aerug. Ps296 VIM-2
Procedure, shortened: (§1)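 In this CLSI broth microdilution format, plates hold the test compound titrated 2-fold (32 to 0.25 μg/mL final) in CAMHB plus a fixed 4 μg/ml β-lactam. Incubation runs 16-20 h at 37° C, and the MIC is scored by eye.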

[2] = tested on: S. aureus MSSA-7 PC-1; assay: Broth microdilution MIC, S. aureus MSSA-7; format: cell-based; conditions: Staphylococcus aureus, fixed piperacillin 4 μg/mL, CAMHB, 16-20 hours 37° C., read-out: MIC of exemplary compounds in presence of fixed β-lactams, Fixed Pip, S. aureus MSSA-7 PC-1
[3] = tested on: K.P. A-1797 KPC-2 VIM-4; assay: Broth microdilution MIC, K. pneumoniae A-1797; format: cell-based; conditions: Klebsiella pneumoniae; fixed meropenem 4 μg/mL, CAMHB, 16-20 hours 37° C.; read-out: MIC of exemplary compounds in presence of fixed β-lactams, Fixed Mero, K.P. A-1797 KPC-2 VIM-4
[4] = tested on: E. cl 144200 p99 AmpC; assay: Broth microdilution MIC, E. cloacae 144200; format: cell-based; conditions: Enterobacter cloacae; fixed ceftazidime 4 μg/mL, CAMHB, 16-20 hours 37° C.; read-out: MIC of exemplary compounds in presence of fixed β-lactams, Fixed CAZ, E. cl 144200 p99 AmpC
Procedure, shortened: as §1

[5] = tested on: K.P. 156319 KPC-3; assay: Broth microdilution MIC, K. pneumoniae 156319; format: cell-based; conditions: Klebsiella pneumoniae; fixed meropenem 4 μg/mL, CAMHB, 16-20 hours 37° C.; read-out: MIC of exemplary compounds in presence of fixed β-lactams, Fixed Mero, K.P. 156319 KPC-3
[6] = tested on: E. coli ESBL4 CTX-M-15; assay: Broth microdilution MIC, E. coli ESBL4; format: cell-based; conditions: Escherichia coli, ESBL4CTXM15; fixed ceftazidime 4 μg/mL, CAMHB, 16-20 hours 37° C.; read-out: MIC of exemplary compounds in presence of fixed β-lactams, Fixed CAZ, E. coli ESBL4 CTX-M-15
Procedure, shortened: as §1

[7] = target: T1, p99 AmpC (Enterobacter cloacae, UniProt P05364); assay: β-Lactamase inhibition, p99 AmpC (nitrocefin substrate); format: biochemical; conditions: nitrocefin 100 μM, 486 nm, 15 min preincubation 37° C., PBS pH 7.4; read-out: IC50 AmpC (Class C)
T1 construct: made in house; host or cells: E. coli BL21 (DE3)
T1 sequence (P05364 21-381): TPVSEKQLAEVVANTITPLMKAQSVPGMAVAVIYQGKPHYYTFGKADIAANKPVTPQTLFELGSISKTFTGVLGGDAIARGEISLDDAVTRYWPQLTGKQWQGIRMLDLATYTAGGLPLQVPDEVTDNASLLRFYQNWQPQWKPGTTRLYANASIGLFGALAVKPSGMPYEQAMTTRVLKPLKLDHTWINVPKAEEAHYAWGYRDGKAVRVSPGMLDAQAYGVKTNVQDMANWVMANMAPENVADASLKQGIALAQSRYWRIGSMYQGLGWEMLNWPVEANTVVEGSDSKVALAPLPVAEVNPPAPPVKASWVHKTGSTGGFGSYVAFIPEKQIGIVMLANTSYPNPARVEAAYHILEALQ
Protocol: For SHV-5, Kpc-2, p99AmpC and OXA-1 β-lactamases, E. coli BL21 (DE3) bacterial cells carrying expression plasmids (expressed as native untagged proteins) for the individual β-lactamases were grown in 1 L of Superbroth (Teknova Inc. Hollister, Calif.) supplemented with 100 μg/ml kanamycin selection and 1×5052 (0.5% glycerol, 0.05% glucose and 0.2% α-lactose) at 35° C. for 18-20 hours. Cells were harvested by centrifugation (4,000×g, 4° C., 20 min), resuspended in 50 ml of 10 mM HEPES pH 7.5 ( 1/20 of the initial volume). The cells were lysed by sonication (5 pulses of 45 seconds) at 45 W on ice. The lysates were clarified by centrifugation at 10,000×g for 40 minutes at 4° C. Samples were diluted 5-fold in 50 mM sodium acetate pH 5.0, stored overnight at 4° C., after which they were centrifuged at 10,000×g for 30 minutes to clarify, and filtered through 0.45 µm filters. The samples were loaded onto a 5 ml Capto S sepharose cation exchange column (GE Healthcare) pre-equilibrated with 50 mM sodium acetate pH 5.0. The column was washed with 5 column volumes of 50 mM sodium acetate pH 5.0 to wash out unbound protein and a linear gradient of NaCl (0 to 500 mM) was used to elute the protein (over 16 CV) from the column. Fractions were assayed for β-lactamase activity using Centa (Calbiochem, Gibbstown, N.J.) or Nitrocefin (EMD Millipore chemicals, Darmstadt, Germany) as a reporter β-lactamase substrate for activity in the isolated fractions. Active fractions were pooled, concentrated and further purified by gel filtration chromatography on a Superdex 75 prep grade gel filtration column (GE Healthcare, Piscataway, N.J.) pre-equilibrated in 50 mM Hepes pH 7.5, 150 mM NaCl. Active fractions were pooled concentrated, quantitated by BCA protein determination (Thermo Scientific, Rockford, Ill.), dialyzed into PBS and frozen at −80° C. in 20% glycerol until use.
An equal volume of diluted enzyme stock was added, and the plates were incubated at 37° C. for 15 min. Nitrocefin was used as substrate for p99 AmpC, VIM-2 and OXA-1 and dispensed into each well at a final concentration of 100 μM. Absorbance at 486 nm was immediately monitored for 10 min using a Biotek Powerwave XS2 microplate spectrophotometer using the GEN5 software package (Biotek Instruments, Winooski Vt.). In an analogous fashion, imipenem was used as substrate for Kpc-2 and Cefotaxime was used for SHV-5, while changes in absorbance upon hydrolysis of the β-lactam ring were monitored at 300 nm and 260 nm respectively in UV-transparent 96-well microtiter assay plates. Maximum rates of hydrolysis were compared to those in control wells (without inhibitors), and percentages of enzyme inhibition were calculated for each concentration of inhibitor. The concentration of inhibitor needed to reduce the initial rate of hydrolysis of substrate by 50% (IC50) was calculated as the residual activity of β-lactamase at 486 nm using GraFit version 7 kinetics software package (Erithacus Software, Surrey, UK).
Using the methodology described above, examples of the current invention were evaluated for their ability to inhibit β-lactamase enzymes from all four Ambler classifications (A through D). […] NT=Not tested.

`N=C(N)N1CCN([C@H]2CC[C@H](CC(=O)N[C@H]3Cc4cccc(C(=O)O)c4OB3O)CC2)CC1` [Example 24, (R)-3-(2-(trans-4-(4-carbamimidoylpiperazin-1-yl)cyclohexyl)acetamido)-2-hydroxy-3,4-dihydro-2H-benzo[e][1,2]oxaborinine-8-carboxylic acid] was tested, and the MIC [1] was 8 to 32 µg/mL, the MIC [2] was < 4 µg/mL and the MIC [3] was < 4 µg/mL. For the same molecule, the MIC [4] was < 4 µg/mL, the MIC [5] was < 4 µg/mL and the MIC [6] was < 4 µg/mL. For the same molecule, the IC50 [7] was < 100 nM.
`NC1CN(C2CCC(CC(=O)N[C@H]3Cc4cccc(C(=O)O)c4OB3O)CC2)C1` (stereo partly drawn) [Example 35, (3R)-3-(2-(4-(3-aminoazetidin-1-yl)cyclohexyl)acetamido)-2-hydroxy-3,4-dihydro-2H-benzo[e][1,2]oxaborinine-8-carboxylic acid] was tested, and the MIC [1] was < 4 µg/mL, the MIC [2] was < 4 µg/mL and the MIC [3] was 8 to 32 µg/mL. For the same molecule, the MIC [4] was < 4 µg/mL, the MIC [5] was < 4 µg/mL and the MIC [6] was < 4 µg/mL. For the same molecule, the IC50 [7] was < 100 nM.
With `O=C(CC1CCC(NC2CNC2)CC1)N[C@H]1Cc2cccc(C(=O)O)c2OB1O` (stereo partly drawn) [Example 36, (3R)-3-(2-(4-(azetidin-3-ylamino)cyclohexyl)acetamido)-2-hydroxy-3,4-dihydro-2H-benzo[e][1,2]oxaborinine-8-carboxylic acid] the MIC [1] was < 4 µg/mL, the MIC [2] was < 4 µg/mL and the MIC [3] was 8 to 32 µg/mL. The MIC [4] was < 4 µg/mL, the MIC [5] was < 4 µg/mL and the MIC [6] was < 4 µg/mL. The IC50 [7] was < 100 nM.
In the case of `O=C(C[C@H]1CC[C@H](N(Cc2ncc[nH]2)Cc2ncc[nH]2)CC1)N[C@H]1Cc2cccc(C(=O)O)c2OB1O` [Example 69, (R)-3-(2-(trans-4-(bis((1H-imidazol-2-yl)methyl)amino)cyclohexyl)acetamido)-2-hydroxy-3,4-dihydro-2H-benzo[e][1,2]oxaborinine-8-carboxylic acid], the MIC [1] is reported as < 4 µg/mL, the MIC [2] is reported as < 4 µg/mL and the MIC [3] is reported as > 32 µg/mL. For the same molecule, the MIC [4] was < 4 µg/mL, the MIC [5] was < 4 µg/mL and the MIC [6] was < 4 µg/mL.
In the case of `O=C(C[C@H]1CC[C@H](NCc2cnc[nH]2)CC1)N[C@H]1Cc2cccc(C(=O)O)c2OB1O` [Example 70, (R)-3-(2-(trans-4-((1H-imidazol-5-yl)methylamino)cyclohexyl)acetamido)-2-hydroxy-3,4-dihydro-2H-benzo[e][1,2]oxaborinine-8-carboxylic acid], the MIC [1] is reported as < 4 µg/mL, the MIC [2] is reported as < 4 µg/mL and the MIC [3] is reported as 8 to 32 µg/mL. For the same molecule, the MIC [4] was < 4 µg/mL, the MIC [5] was < 4 µg/mL and the MIC [6] was < 4 µg/mL.
In the case of `CC(C)NCCN[C@H]1CC[C@H](CC(=O)N[C@H]2Cc3cccc(C(=O)O)c3OB2O)CC1` [Example 71, (R)-2-hydroxy-3-(2-(trans-4-(2-(isopropylamino)ethylamino)cyclohexyl)acetamido)-3,4-dihydro-2H-benzo[e][1,2]oxaborinine-8-carboxylic acid], the MIC [1] is reported as < 4 µg/mL, the MIC [2] is reported as < 4 µg/mL and the MIC [3] is reported as < 4 µg/mL. For the same molecule, the MIC [4] was < 4 µg/mL, the MIC [5] was < 4 µg/mL and the MIC [6] was < 4 µg/mL.
In the case of `O=C(C[C@H]1CC[C@H](NCCNc2ncccn2)CC1)N[C@H]1Cc2cccc(C(=O)O)c2OB1O` [Example 72], the MIC [1] is reported as < 4 µg/mL, the MIC [2] is reported as < 4 µg/mL and the MIC [3] is reported as 8 to 32 µg/mL. The MIC [4] was < 4 µg/mL, the MIC [5] was < 4 µg/mL and the MIC [6] was < 4 µg/mL.
In the case of `O=C(C[C@H]1CC[C@H](NCCNC2CCCC2)CC1)N[C@H]1Cc2cccc(C(=O)O)c2OB1O` [Example 73, (R)-3-(2-(trans-4-(2-(cyclopentylamino)ethylamino)cyclohexyl)acetamido)-2-hydroxy-3,4-dihydro-2H-benzo[e][1,2]oxaborinine-8-carboxylic acid], the MIC [1] is reported as < 4 µg/mL, the MIC [2] is reported as < 4 µg/mL and the MIC [3] is reported as < 4 µg/mL. The MIC [4] was < 4 µg/mL, the MIC [5] was < 4 µg/mL and the MIC [6] was < 4 µg/mL.
With `O=C(C[C@H]1CC[C@H](NCCNCC2CC2)CC1)N[C@H]1Cc2cccc(C(=O)O)c2OB1O` [Example 74, (R)-3-(2-(trans-4-(2-(cyclopropylmethylamino)ethylamino)cyclohexyl)acetamido)-2-hydroxy-3,4-dihydro-2H-benzo[e][1,2]oxaborinine-8-carboxylic acid] the MIC [1] was < 4 µg/mL, the MIC [2] was < 4 µg/mL and the MIC [3] was < 4 µg/mL. The MIC [4] was < 4 µg/mL, the MIC [5] was < 4 µg/mL and the MIC [6] was < 4 µg/mL.
In the case of `O=C(C[C@H]1CC[C@H](NCCN(CC2CC2)CC2CC2)CC1)N[C@H]1Cc2cccc(C(=O)O)c2OB1O` [Example 75, (R)-3-(2-(trans-4-(2-(bis(cyclopropylmethyl)amino)ethylamino)cyclohexyl)acetamido)-2-hydroxy-3,4-dihydro-2H-benzo[e][1,2]oxaborinine-8-carboxylic acid], the MIC [1] is reported as < 4 µg/mL, the MIC [2] is reported as < 4 µg/mL and the MIC [3] is reported as < 4 µg/mL. The MIC [4] was < 4 µg/mL, the MIC [5] was < 4 µg/mL and the MIC [6] was < 4 µg/mL.
With `NCCC(N)[C@H]1CC[C@H](CC(=O)N[C@H]2Cc3cccc(C(=O)O)c3OB2O)CC1` (stereo partly drawn) [Example 76, (R)-3-(2-(trans-4-(1,3-diaminopropyl)cyclohexyl)acetamido)-2-hydroxy-3,4-dihydro-2H-benzo[e][1,2]oxaborinine-8-carboxylic acid] the MIC [1] was 8 to 32 µg/mL, the MIC [2] was < 4 µg/mL and the MIC [3] was < 4 µg/mL. For the same molecule, the MIC [4] was < 4 µg/mL, the MIC [5] was < 4 µg/mL and the MIC [6] was < 4 µg/mL.
With `NCC(N)[C@H]1CC[C@H](CC(=O)N[C@H]2Cc3cccc(C(=O)O)c3OB2O)CC1` (stereo partly drawn) [Example 77, (R)-3-(2-(trans-4-(1,2-diaminoethyl)cyclohexyl)acetamido)-2-hydroxy-3,4-dihydro-2H-benzo[e][1,2]oxaborinine-8-carboxylic acid] the MIC [1] was < 4 µg/mL, the MIC [2] was < 4 µg/mL and the MIC [3] was 8 to 32 µg/mL. The MIC [4] was < 4 µg/mL, the MIC [5] was < 4 µg/mL and the MIC [6] was < 4 µg/mL.
For `CCNCCN[C@H]1CC[C@H](CC(=O)N[C@H]2Cc3cccc(C(=O)O)c3OB2O)CC1` [Example 78, (R)-3-(2-(trans-4-(2-(ethylamino)ethylamino)cyclohexyl)acetamido)-2-hydroxy-3,4-dihydro-2H-benzo[e][1,2]oxaborinine-8-carboxylic acid], the MIC [1] was < 4 µg/mL, the MIC [2] was < 4 µg/mL and the MIC [3] was < 4 µg/mL. The MIC [4] was < 4 µg/mL, the MIC [5] was < 4 µg/mL and the MIC [6] was < 4 µg/mL.
In the case of `CN(C)CCN[C@H]1CC[C@H](CC(=O)N[C@H]2Cc3cccc(C(=O)O)c3OB2O)CC1` [Example 79, (R)-3-(2-(trans-4-(2-(dimethylamino)ethylamino)cyclohexyl)acetamido)-2-hydroxy-3,4-dihydro-2H-benzo[e][1,2]oxaborinine-8-carboxylic acid], the MIC [1] is reported as < 4 µg/mL, the MIC [2] is reported as < 4 µg/mL and the MIC [3] is reported as < 4 µg/mL. The MIC [4] was < 4 µg/mL, the MIC [5] was < 4 µg/mL and the MIC [6] was < 4 µg/mL.
